Source: US9549921B2, “Heterocyclic compounds and methods of use thereof for the treatment of hepatitis C” (priority 2014, dated 2017)
Where two headings read alike, the source gives them in different places.

Assays:
HCV replicon genotype 1a = assay: HCV replicon assay, genotype 1a (cell ELISA for NS3/4A); type: cell-based, hepatitis C virus
Method in brief: (§1)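 Stable neomycin-resistant replicon cell lines (genotype 1a or 1b) incubated 96 h with compound dilution series without G418. After washing and lysis, replication measured by cell ELISA for replicon-encoded NS3/4A protein; IC50 as % of DMSO control via four-parameter fit.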

HCV replicon genotype 1b = assay: HCV replicon assay, genotype 1b (cell ELISA for NS3/4A); type: cell-based, hepatitis C virus
Method in brief: as §1

[1] = Hepatitis C virus, 96 h, read-out: 1a IC50 (nM), HCV genotype 1a replicon cells, 96 hours incubation, NS3/4A ELISA readout, % of DMSO control
[2] = Hepatitis C virus, 96 h, read-out: 1b IC50 (nM), HCV genotype 1b replicon cells, 96 hours incubation, NS3/4A ELISA readout, % of DMSO control
[3] = read-out: 1a IC50, HCV genotype 1a replicon cells, 96 hours incubation, NS3/4A ELISA readout, % of DMSO control
[4] = read-out: 1b IC50, HCV genotype 1b replicon cells, 96 hours incubation, NS3/4A ELISA readout, % of DMSO control

Structure (SMILES)	IC50 (HCV replicon genotype 1a; [1]) [nM]	IC50 (HCV replicon genotype 1b; [2]) [nM]	IC50 (HCV replicon genotype 1a; [3]) [nM]	IC50 (HCV replicon genotype 1b; [4]) [nM]
CNC(=O)c1c(-c2ccc(F)cc2)oc2cc(N(C)S(C)(=O)=O)c([C@H]3CCCN(S(=O)(=O)/C=C/c4ccccc4)C3)cc12 [Example 79, 2-(4-fluorophenyl)-N-methyl-6-[methyl(methylsulfonyl)amino]-5-[(3R)-1-{[(E)-2-phenylethenyl]sulfonyl}piperidin-3-yl]-1-benzofuran-3-carboxamide]	64.8	33.1		
CNC(=O)c1c(-c2ccc(F)cc2)oc2cc(N(C)S(C)(=O)=O)c([C@H]3CCCN(C(=O)c4cc5cc(F)ccc5[nH]4)C3)cc12 [Example 90, (R)-5-(1-(5-fluoro-1H-indole-2-carbonyl)piperidin-3-yl)-2-(4-fluorophenyl)-N-methyl-6-(N-methylmethylsulfonamido)benzofuran-3-carboxamide]	41.6	20.7		
CNC(=O)c1c(-c2ccc(F)cc2)oc2cc(N(C)S(C)(=O)=O)c([C@@H]3CCCN(c4nc5ccccc5n4C)C3)cc12 (single isomer, unassigned) [Example 44, 2-(4-fluorophenyl)-N-methyl-5-(1-(1-methyl-1H-benzo[d]imidazol-2-yl)piperidin-3-yl)-6-(N-methylmethylsulfonamido)benzofuran-3-carboxamide]			71	82.4
CNC(=O)c1c(-c2ccc(F)cc2)oc2cc(N(C)S(C)(=O)=O)c([C@H]3CCCN(C(=O)c4cn5c(Br)cccc5n4)C3)cc12 [Example 103, 5-{(3R)-1-[(5-bromoimidazo[1,2-a]pyridin-2-yl)carbonyl]piperidin-3-yl}-2-(4-fluorophenyl)-N-methyl-6-[methyl(methylsulfonyl)amino]-1-benzofuran-3-carboxamide]	212	110		
CNC(=O)c1c(-c2ccc(F)cc2)oc2cc(N(C)S(C)(=O)=O)c([C@@H]3CCCN(C(=O)[C@H](N)c4ccccc4F)C3)cc12 (single isomer, unassigned) [Example 30]			122	215
CNC(=O)c1c(-c2ccc(F)cc2)oc2cc(N(C)S(C)(=O)=O)c([C@H]3CCCN(S(=O)(=O)c4cc5ccccc5o4)C3)cc12 [Example 83, 5-[(3R)-1-(1-benzofuran-2-ylsulfonyl)piperidin-3-yl]-2-(4-fluorophenyl)-N-methyl-6-[methyl(methylsulfonyl)amino]-1-benzofuran-3-carboxamide]	38.2	22.4		
CNC(=O)c1c(-c2ccc(F)cc2)oc2cc(N(C)S(C)(=O)=O)c([C@@H]3CCCN(C(=O)Cc4ccc(F)cc4)C3)cc12 (single isomer, unassigned) [Example 17, 2-(4-fluorophenyl)-5-(1-(2-(4-fluorophenyl)acetyl)piperidin-3-yl)-N-methyl-6-(N-methylmethylsulfonamido)benzofuran-3-carboxamide]	138	58.2		
CNC(=O)c1c(-c2ccc(F)cc2)oc2cc(N(C)S(C)(=O)=O)c([C@@H]3CCCN(c4nc5cc(F)ccc5o4)C3)cc12 (single isomer, unassigned) [Example 52]	32.6	42.6		
CNC(=O)c1c(-c2ccc(F)cc2)oc2cc(N(C)S(C)(=O)=O)c([C@@H]3CCCN(C(=O)c4cc5sccc5n4C)C3)cc12 [Example 74, 2-(4-fluorophenyl)-N-methyl-6-[methyl(methylsulfonyl)amino]-5-{1-[(4-methyl-4H-thieno[3,2-b]pyrrol-5-yl)carbonyl]piperidin-3-yl}-1-benzofuran-3-carboxamide]	54.8	43.4		
CNC(=O)c1c(-c2ccc(F)cc2)oc2cc(N(C)S(C)(=O)=O)c([C@H]3CCCN(c4nc5c(C#N)cccc5o4)C3)cc12 [Example 4, (R)-5-(1-(4-cyanobenzo[d]oxazol-2-yl)piperidin-3-yl)-2-(4-fluorophenyl)-N-methyl-6-(N-methylmethylsulfonamido)benzofuran-3-carboxamide]	7.03	6.53		
CNC(=O)c1c(-c2ccc(F)cc2)oc2cc(N(C)S(C)(=O)=O)c([C@H]3CCCN(C(=O)[C@@H](NC(=O)OC(C)(C)C)c4ccccc4F)C3)cc12 [Example 94, tert-butyl {(1S)-1-(2-fluorophenyl)-2-[(3R)-3-{2-(4-fluorophenyl)-3-(methylcarbamoyl)-6-[methyl(methylsulfonyl)amino]-1-benzofuran-5-yl}piperidin-1-yl]-2-oxoethyl}carbamate]	300	168		
CNC(=O)c1c(-c2ccc(F)cc2)oc2cc(N(C)S(C)(=O)=O)c([C@@H]3CCCN(S(=O)(=O)c4ccc(F)cc4)C3)cc12 [Example 115]	36.6	8		
CNC(=O)c1c(-c2ccc(F)cc2)oc2cc(N(C)S(C)(=O)=O)c([C@@H]3CCCN(c4ncc(-c5ccc(F)cc5)o4)C3)cc12 (single isomer, unassigned) [Example 58, 2-(4-fluorophenyl)-5-(1-(5-(4-fluorophenyl)oxazol-2-yl)piperidin-3-yl)-N-methyl-6-(N-methylmethylsulfonamido)benzofuran-3-carboxamide]			132	36.1
CNC(=O)c1c(-c2ccc(F)cc2)oc2cc(N(C)S(C)(=O)=O)c([C@H]3CCCN(S(=O)(=O)c4cccc5nonc45)C3)cc12 [Example 138, 5-[(3R)-1-(2,1,3-benzoxadiazol-4-ylsulfonyl)piperidin-3-yl]-2-(4-fluorophenyl)-N-methyl-6-[methyl(methylsulfonyl)amino]-1-benzofuran-3-carboxamide]	139	55.7		
CNC(=O)c1c(-c2ccc(F)cc2)oc2cc(N(C)S(C)(=O)=O)c([C@H]3CCCN(S(=O)(=O)c4ccc(F)cc4)C3)cc12 [Example 131, 2-(4-fluorophenyl)-5-{(3R)-1-[(4-fluorophenyl)sulfonyl]piperidin-3-yl}-N-methyl-6-[methyl(methylsulfonyl)amino]-1-benzofuran-3-carboxamide]	176	88.9		
CNC(=O)c1c(-c2ccc(F)cc2)oc2cc(N(C)S(C)(=O)=O)c([C@@H]3CCCN(c4nc5ccccc5o4)C3)cc12 (single isomer, unassigned) [Example 47, 5-(1-(benzo[d]oxazol-2-yl)piperidin-3-yl)-2-(4-fluorophenyl)-N-methyl-6-(N-methylmethylsulfonamido)benzofuran-3-carboxamide]			8.37	5.37
CNC(=O)c1c(-c2ccc(F)cc2)oc2cc(N(C)S(C)(=O)=O)c([C@@H]3CCCN(C(=O)c4cc5c(OC)cccc5[nH]4)C3)cc12 [Example 64, 2-(4-fluorophenyl)-5-{1-[(4-methoxy-1H-indol-2-yl)carbonyl]piperidin-3-yl}-N-methyl-6-[methyl(methylsulfonyl)amino]-1-benzofuran-3-carboxamide]	135	40.7		
CNC(=O)c1c(-c2ccc(F)cc2)oc2cc(N(C)S(C)(=O)=O)c(C3CCN(C)C(c4cc5c(F)cccc5[nH]4)C3)cc12 (stereo not drawn) [Example 16, 5-(2-(4-fluoro-1H-indol-2-yl)-1-methylpiperidin-4-yl)-2-(4-fluorophenyl)-N-methyl-6-(N-methylmethylsulfonamido)benzofuran-3-carboxamide]	333	106		
